Assay results reported in patent US10517889B2, “Modulators of SMAD7 expression” (Ionis Pharmaceuticals, Inc., priority 2017, dated 2019).
Where “and” joins values, the source holds several entries; their conditions need not be identical. Equal values may be shown once. Strand notation (5' to 3'): a small letter for the sugar, then the base; units joined by * are phosphorothioate-linked, units joined directly phosphodiester-linked; [ ] holds rarer units or linkages, { } end groups; capitals alone tell only the bases. k = constrained ethyl (cEt); [5mC] = 5-methylcytosine; d = 2'-deoxy (DNA)

Legend:
[1] = tested on: human SMAD7 mRNA; assay: Dose-dependent inhibition of human SMAD7 mRNA expression in Hep3B cells (Example 3, Study 1 and 2); type: cell-based; settings: electroporation; for % inhibition of SMAD7 mRNA expression: approximately 16 hours; for IC50: Study 2 (740-20000 nM)
Procedure, shortened: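 Hep3B cells, 20,000 per well, electroporated with antisense oligonucleotide at 0.31, 1.25, 5.00 or 20.00 μM (first series) or 0.74, 2.22, 6.67 or 20.00 μM (second series). After ~16 h, SMAD7 mRNA measured by RT-qPCR (RTS5062), normalised to RIBOGREEN total RNA. Percent inhibition vs untreated cells; IC50 derived.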

[2] = tested on: human SMAD7 mRNA; assay: Antisense inhibition of human SMAD7 mRNA expression in Hep3B cells by 3-10-3 cEt gapmers, 10,000 nM, electroporation (Example 2); type: cell-based; settings: approximately 24 hours, primer probe set RTS5062, relative to untreated control cells; for % Inhibition: SMAD7 mRNA, Hep3B cells, 10,000 nM antisense oligonucleotide, electroporation; for % inhibition of SMAD7 mRNA expression: Hep3B cells, electroporation with 10,000 nM antisense oligonucleotide
Procedure, shortened: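 SMAD7 mRNA was measured by real-time PCR (RTS5062) with RiboGreen total-RNA normalization, about 24 h after 10,000 nM gapmer was delivered by electroporation into Hep3B cells at 20,000 per well. Gapmers were 16-mer 3-10-3 cEt, fully phosphorothioate; values are % inhibition versus untreated controls.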

[3] = tested on: human SMAD7 mRNA; assay: Dose-dependent inhibition of human SMAD7 mRNA expression in Hep3B cells, comparison with ION 28453 (Example 4); type: cell-based; settings: electroporation, approximately 16 hours; for IC50: SMAD7 mRNA
Experimental: Cells were plated at a density of 20,000 cells per well and transfected using electroporation with 0.25 μM, 0.74 μM, 2.22 μM, 6.67 μM, or 20.00 μM concentrations of antisense oligonucleotide, as specified in the Tables below. After a treatment period of approximately 16 hours, RNA was isolated from the cells and SMAD7 mRNA levels were measured by quantitative real-time PCR. Primer probe set RTS5062 was used to measure human SMAD7 mRNA levels. SMAD7 mRNA levels were adjusted according to total RNA content, as measured by RIBOGREEN®. Results are presented as percent inhibition of SMAD7 mRNa expression, relative to untreated control cells.
The half maximal inhibitory concentration (IC50) of each oligonucleotide is also presented. […] Several newly designed antisense oligonucleotides had greater potency than the previously disclosed lead compound, ION 28453.

[4] = tested on: mouse Smad7 mRNA; assay: Murine Smad7 mRNA expression after oral administration in BALB/c mice (Example 11); type: in vivo; settings: 500 mg/kg/day oral for 3 weeks, 24 hours after last dose
Experimental: The objective of this study was to evaluate the efficacy of Ionis SMAD7 antisense oligonucleotides in BALB/c mice following daily oral administration. The Ionis oligonucleotides are cross-reactive with mouse Smad7 mRNA.
Groups of BALB/c mice were orally administered 500 mg/kg/day for 3 weeks of human Smad7 oligonucleotides, ION 790615, ION 798781, or ION 830025, or mouse Smad7 oligonucleotide, ION 772797 (a 3-10-3 cEt gapmer with phosphorothioate backbone and sequence […]; designated herein as SEQ ID NO: 2743). One group of mice was orally administered PBS daily for 3 weeks. Each group contained 4 mice.
To evaluate the efficacy of the oligonucleotides, murine Smad7 mRNA expression in the liver, kidneys, duodenum, ileum, and colon was measured using primer probe set RTS1114.

[5] = tested on: human peripheral blood mononuclear cells (PBMCs); assay: Human PBMC activation assay, cytokine levels (IL-10, IL-6, MCP-1, TNF-α) in supernatant after 24 hours (Example 9); settings: human PBMC supernatant after 24 hours
[6] = tested on: human SMAD7 mRNA; assay: Dose-dependent inhibition of human SMAD7 mRNA expression in A431 cells, oligonucleotide added without transfection (Example 5, Study 1); type: cell-based; settings: approximately 48 hours
Experimental: The newly designed compounds disclosed herein are cEt-modified antisense oligonucleotides. […] The studies described below show a comparison of select cEt-modified gapmers and ION0736697/Mongersen.
A431 cells were plated in collagen I-coated 96-well plates in DMEM with […]. Immediately after plating, 0.08 μM, 0.25 μM, 0.74 μM, 2.22 μM, 6.67 μM, or 20.00 μM concentrations of antisense oligonucleotide were added. The plates were shaken briefly before incubating at 37° C. and 10% CO2. After a treatment period of approximately 48 hours, the cells were washed and lyzed and RNA on 384-well Pall plates with DNase I treatment. SMAD7 mRNA levels were measured by quantitative real-time PCR. Primer probe set RTS5062 was used to measure human SMAD7 mRNA levels. SMAD7 mRNA levels were adjusted according to total RNA content, as measured by RIBOGREEN®. Results are presented as percent inhibition of SMAD7 mRNA expression, relative to untreated control cells.
All Ionis oligonucleotides had greater potency than ION 736697/Mongersen.

[7] = tested on: murine Smad7 mRNA; assay: Dose-dependent inhibition of murine Smad7 mRNA in bEND cells, electroporation (Example 5, Study 2); type: cell-based, mouse; settings: electroporation; for % inhibition of SMAD7 mRNA expression: approximately 16 hours
Experimental: Many of the Ionis designed oligonucleotides as well as ION 736697/Mongersen are complementary to mouse Smad7 mRNA. […] After a treatment period of approximately 16 hours, the cells were washed and lyzed and RNA on 384-well Pall plates with DNase I treatment. Smad7 mRNA levels were measured by quantitative real-time PCR. Primer probe set RTS1114 (forward sequence […], designated herein as SEQ ID NO: 8; reverse sequence […], designated herein as SEQ ID NO: 9; probe sequence […], designated herein as SEQ ID NO: 10) was used to measure murine Smad7 mRNA levels. Smad7 mRNA levels were adjusted according to total RNA content, as measured by RIBOGREEN®. Results are presented as percent inhibition of Smad7 mRNA expression, relative to untreated control cells.
Many of the Ionis oligonucleotides had greater potency than ION 736697/Mongersen.

[8] = 740 nM, Study 2, relative to untreated control cells

## 801040 (antisense kG*kT*k[5mC]*dA*dT*dG*dA*dA*dA*dG*dA*dT*dT*k[5mC]*kT*kT) [compound 801040]
[1]; [8]
  % inhibition of SMAD7 mRNA expression: 52%
[1]; 2220 nM, Study 2
  % inhibition of SMAD7 mRNA expression: 55%
[1]; 6670.0 nM, Study 2
  % inhibition of SMAD7 mRNA expression: 60%
[1]; 20000.0 nM, Study 2
  % inhibition of SMAD7 mRNA expression: 95%
[1]
  IC50: 1 µM
[2]
  % Inhibition: 72%
[3]; 0.25 μM
  % inhibition of SMAD7 mRNA expression: 31%
[3]; 0.74 μM
  % inhibition of SMAD7 mRNA expression: 44%
[3]; 2.22 μM
  % inhibition of SMAD7 mRNA expression: 67%
[3]; 6.67 μM
  % inhibition of SMAD7 mRNA expression: 63%
[3]; 20.00 μM
  % inhibition of SMAD7 mRNA expression: 91%
[3]
  IC50: 1 µM

## 772568 (antisense kA*kG*k[5mC]*d[5mC]*dT*d[5mC]*dT*dT*dG*dA*d[5mC]*dT*dT*k[5mC]*k[5mC]*kG) [compound 772568]
[1]; [8]
  % inhibition of SMAD7 mRNA expression: 41%
[1]; 2220 nM, Study 2
  % inhibition of SMAD7 mRNA expression: 62%
[1]; 6670.0 nM, Study 2
  % inhibition of SMAD7 mRNA expression: 58%
[1]; 20000.0 nM, Study 2
  % inhibition of SMAD7 mRNA expression: 79%
[1]
  IC50: 1 µM
[2]
  % inhibition of SMAD7 mRNA expression: 82%
  % Inhibition: 45%
[3]; 0.74 μM
  % inhibition of SMAD7 mRNA expression: 0%
[3]; 2.22 μM
  % inhibition of SMAD7 mRNA expression: 22% and 25%
[3]; 6.67 μM
  % inhibition of SMAD7 mRNA expression: 36% and 47%
[3]; 20.00 μM
  % inhibition of SMAD7 mRNA expression: 61%
[3]
  IC50: 13 µM and 9 µM

## 772797 (AATGAACTGTATCTCC; sugars from the 5' end k3 d10 k3, all phosphorothioate, methylation of C not given here) [compound 772797]
[4]; colon
  Mouse Smad7 mRNA expression (% inhibition), Colon: 1 % inhibition
[4]; duodenum
  Mouse Smad7 mRNA expression (% inhibition), Duodenum: 36 % inhibition
[4]; ileum
  Mouse Smad7 mRNA expression (% inhibition), Ileum: 8 % inhibition
[4]; kidney
  Mouse Smad7 mRNA expression (% inhibition), Kidney: 0 % inhibition
[4]; liver
  Mouse Smad7 mRNA expression (% inhibition), Liver: 7 % inhibition

## 801051 (antisense kG*kT*kG*dT*dT*d[5mC]*dA*dA*d[5mC]*dA*dA*dT*dG*k[5mC]*kT*kT) [compound 801051]
[1]; [8]
  % inhibition of SMAD7 mRNA expression: 52%
[1]; 2220 nM, Study 2
  % inhibition of SMAD7 mRNA expression: 62%
[1]; 6670.0 nM, Study 2
  % inhibition of SMAD7 mRNA expression: 76%
[1]; 20000.0 nM, Study 2
  % inhibition of SMAD7 mRNA expression: 88%
[1]
  IC50: 4 µM
[2]
  % Inhibition: 68%
[3]; 0.25 μM
  % inhibition of SMAD7 mRNA expression: 0%
[3]; 0.74 μM
  % inhibition of SMAD7 mRNA expression: 10%
[3]; 2.22 μM
  % inhibition of SMAD7 mRNA expression: 34%
[3]; 6.67 μM
  % inhibition of SMAD7 mRNA expression: 62%
[3]; 20.00 μM
  % inhibition of SMAD7 mRNA expression: 83%
[3]
  IC50: 4 µM

## 800821 (antisense kG*k[5mC]*kT*dA*dA*dA*dT*dT*dT*d[5mC]*d[5mC]*dA*dA*kT*kG*kA) [compound 800821]
[2]
  % Inhibition: 56%
[3]; 0.25 μM
  % inhibition of SMAD7 mRNA expression: 14%
[3]; 0.74 μM
  % inhibition of SMAD7 mRNA expression: 30%
[3]; 2.22 μM
  % inhibition of SMAD7 mRNA expression: 35%
[3]; 6.67 μM
  % inhibition of SMAD7 mRNA expression: 58%
[3]; 20.00 μM
  % inhibition of SMAD7 mRNA expression: 79%
[3]
  IC50: 4 µM

## 799184 (antisense kA*kA*k[5mC]*d[5mC]*dT*dT*dT*dG*dT*dA*dG*dT*dT*kA*kG*kA) [compound 799184]
[2]
  % inhibition of SMAD7 mRNA expression: 58%
  % Inhibition: 48%
[3]; 0.25 μM
  % inhibition of SMAD7 mRNA expression: 0%
[3]; 0.74 μM
  % inhibition of SMAD7 mRNA expression: 10%
[3]; 2.22 μM
  % inhibition of SMAD7 mRNA expression: 18%
[3]; 6.67 μM
  % inhibition of SMAD7 mRNA expression: 51%
[3]; 20.00 μM
  % inhibition of SMAD7 mRNA expression: 78%
[3]
  IC50: 6 µM

## 736697 (antisense GTCGCCCCTTCTCCCCGCAGC; chemistry not fully specified) [compound 736697]
[5]; 0.0128 μM oligonucleotide
  Levels of IL-6: 3.6 pg/mL
  Levels of IL-10: 2.1 pg/mL
  Levels of MCP-1: 297.6 pg/mL
  Levels of TNF-α: 2.8 pg/mL
[5]; 0.064 μM oligonucleotide
  Levels of IL-6: 5.3 pg/mL
  Levels of IL-10: 3.1 pg/mL
  Levels of MCP-1: 385.9 pg/mL
  Levels of TNF-α: 3.5 pg/mL
[5]; 0.32 μM oligonucleotide
  Levels of IL-6: 12.3 pg/mL
  Levels of IL-10: 3.5 pg/mL
  Levels of MCP-1: 681.3 pg/mL
  Levels of TNF-α: 5.5 pg/mL
[5]; 1.6 μM oligonucleotide
  Levels of IL-6: 15.5 pg/mL
  Levels of IL-10: 2.2 pg/mL
  Levels of MCP-1: 693.9 pg/mL
  Levels of TNF-α: 6.8 pg/mL
[5]; 8 μM oligonucleotide
  Levels of IL-6: 57.4 pg/mL
  Levels of IL-10: 4.2 pg/mL
  Levels of MCP-1: 2306.8 pg/mL
  Levels of TNF-α: 13.6 pg/mL
[5]; 40 μM oligonucleotide
  Levels of IL-6: 63.3 pg/mL
  Levels of IL-10: 4.7 pg/mL
  Levels of MCP-1: 2974.9 pg/mL
  Levels of TNF-α: 28.1 pg/mL
[5]; 200 μM oligonucleotide
  Levels of IL-6: 64.8 pg/mL
  Levels of IL-10: 4.0 pg/mL
  Levels of MCP-1: 622.8 pg/mL
  Levels of TNF-α: 43.7 pg/mL
[6]; 0.08 μM
  % inhibition of SMAD7 mRNA expression: 14%
[6]; 0.25 μM
  % inhibition of SMAD7 mRNA expression: 20%
[6]; 0.74 μM
  % inhibition of SMAD7 mRNA expression: 24%
[6]; 2.22 μM
  % inhibition of SMAD7 mRNA expression: 13%
[6]; 6.67 μM
  % inhibition of SMAD7 mRNA expression: 34%
[6]; 20.00 μM
  % inhibition of SMAD7 mRNA expression: 37%
[6]; SMAD7 mRNA
  IC50: > 20 µM
[7]; 0.25 μM
  % inhibition of SMAD7 mRNA expression: 1%
[7]; 0.74 μM
  % inhibition of SMAD7 mRNA expression: 1%
[7]; 2.22 μM
  % inhibition of SMAD7 mRNA expression: 0%
[7]; 6.67 μM
  % inhibition of SMAD7 mRNA expression: 0%
[7]; 20.00 μM
  % inhibition of SMAD7 mRNA expression: 0%
[7]
  IC50: > 20 µM
